Results on 44 compounds are retold here after ChEMBL document CHEMBL1143686, “Alkylation potency and protein specificity of aromatic urea derivatives and bioisosteres as potential irreversible antagonists of the colchicine-binding site” (2007).

The source made the active and inactive calls. The calls are words filed in the database; no cut-off is given here.

In assay [1] the test system is M21. The experiment in a line: Growth inhibition of human M21 cells after 48 hrs. The settings on record: M21, 48 h. The class given is functional.
The next assay has as its system MCF7. The experiment in a line: Growth inhibition of human MCF7 cells after 48 hrs. The class given is functional. Particulars: MCF7, 48 h.
The subject of a further assay is HT-29. The assay is described as follows: Growth inhibition of human HT29 cells after 48 hrs. The class given is functional. Particulars: HT-29, 48 h.
In assay [2] the test system is M21. The assay is described as follows: Alkylation of beta tubulin in human M21 cells at 25 uM. In kind it is functional, cell-based.
In assay [3] the test system is M21. The experiment in a line: Alkylation of beta tubulin in human M21 cells at 25 uM after 16 to 24 hrs. The class given is functional, cell-based.
Assay [4] has as its system M21. The assay is described as follows: Cell cycle arrest by accumulation at G2/M phase in human M21 cells after 24 hrs by flow cytometry. The class given is functional, cell-based. On the technique in general: A flow cytometer gives signals particle by particle.

One may read the GI50 as the concentration giving 50% growth inhibition. A high value points to less potent growth inhibition. In the case of `Cc1ccc(C)c(NC(=O)NC(=O)CCl)c1`, the GI50 in the assay with M21 [1] was 3.8 µM; with MCF7, 5.8 µM; in the assay with HT-29 it was 6.7 µM. Also, the result in the assay on M21 [2] was inactive.
With `O=C(NCCCl)Nc1cccc2c1CCC2`, growth in the assay on HT-29 was halved (GI50) at 95 µM. This lies in the double-digit micromolar range.
On the same count and under the same terms, the value for `Cc1ccc(NC(=O)NCCCl)c(C)c1` was 78 µM.
Regarding `CC(C)(C)c1ccc(NC2=NCCO2)cc1`, the figures for the GI50 in the assay with M21 [1], in the assay on MCF7 and in the assay with HT-29 were 2.4 µM, 3 µM and 1.5 µM, respectively. The result with M21 [3] was Active.
For `Cc1ccc(NC(=O)NCCCl)cc1`, the GI50 was determined as 33 µM with M21 [1], 44 µM in the assay with MCF7 and 16 µM in the assay with HT-29.
The matching figures for `Cc1cccc(C)c1/N=C1/NCCO1`: 27 µM, 23 µM and 15 µM.
As for `Cc1ccccc1NC(=O)NC(=O)CCl`, the values for the concentration for 50% growth inhibition (GI50) in the assay with M21 [1], in the assay on MCF7 and with HT-29 were 6.9 µM, 10.6 µM and 9.8 µM, respectively. For the same compound, the result with M21 [2] was inactive.
In the case of `Cc1cccc(NC(=O)NC(=O)CCl)c1C`, the GI50 in the assay with M21 [1] stood at 4.7 µM; in the assay with MCF7, 6.5 µM; in the assay with HT-29, 6 µM. The outcome with M21 [2] was inactive.
`Cc1cccc(NC2=NCCO2)c1C`: the values for the GI50 with M21 [1], with MCF7 and in the assay on HT-29 were 17 µM, 15 µM and 9 µM, respectively. Moreover, the result in the assay with M21 [2] was inactive.
Consider `Cc1cc(C)cc(NC2=NCCO2)c1`, for which the 50% growth inhibitory concentration (GI50) is 12 µM with M21 [1], 19 µM in the assay on MCF7 and 7 µM in the assay on HT-29.
Take `Cc1ccc(NC2=NCCO2)cc1C`: the GI50 is 5.1 µM with M21 [1], 5.7 µM with MCF7 and 2.7 µM in the assay on HT-29. Besides, the result with M21 [3] was Active.
As for `CC[C@]1(O)C[C@@H]2CN(CCc3c([nH]c4ccccc34)[C@@](C(=O)OC)(c3cc4c(cc3OC)N(C)[C@H]3[C@@](O)(C(=O)OC)[C@H](OC(C)=O)[C@]5(CC)C=CCN6CC[C@]43[C@@H]65)C2)C1` [VINBLASTINE], the results for the GI50 with M21 [1], with MCF7 and in the assay on HT-29 were 0.01 µM, 0.002 µM and 0.002 µM, respectively.
For the compound `Cc1ccc(C)c(NC(=O)NCCCl)c1`, the GI50 in the assay with HT-29 worked out at 67 µM.
Take `Cc1cccc(NC2=NCCO2)c1`: the GI50 with M21 [1] was found to be 61 µM; in the assay on MCF7, 52 µM; in the assay with HT-29 it was 33 µM.
`O=C(CCl)NC(=O)NC1c2ccccc2-c2ccccc21`: the results for the GI50 in the assay with M21 [1], with MCF7 and with HT-29 were 3.4 µM, 4.8 µM and 8.6 µM, respectively. Besides, in the assay on M21 [2], the result was inactive.
The matching figures for `Cc1cc(C)cc(NC(=O)NC(=O)CCl)c1`: 3.7 µM, 4.3 µM, 6.1 µM and “inactive”.
Take `O=C(NCCCl)Nc1ccc2c(c1)Cc1ccccc1-2`: the concentration for 50% growth inhibition (GI50) with M21 [1] is 5.1 µM; in the assay with MCF7 it was 14.2 µM; in the assay on HT-29, 2.3 µM. Besides, the result in the assay on M21 [4] was Active.
On to `Cc1cccc(NC(=O)NC(=O)CCl)c1`, for which the GI50 in the assay with M21 [1] turned out to be 4 µM; in the assay on MCF7, 6.1 µM; in the assay on HT-29, 9 µM. For the same compound, the outcome in the assay on M21 [2] was inactive.
In the case of `Cc1ccc(C)c(NC2=NCCO2)c1`, the GI50 was determined as 73 µM in the assay on M21 [1], 72 µM in the assay on MCF7 and 44 µM in the assay on HT-29.
For the compound `c1cc2c(c(NC3=NCCO3)c1)CCC2`, the GI50 in the assay on M21 [1] was found to be 30 µM; in the assay on MCF7, 26 µM; in the assay on HT-29, 16 µM.
With `CC(C)(C)c1ccc(NC(=O)NCCCl)cc1`, the values for the GI50 in the assay on M21 [1], in the assay on MCF7 and in the assay on HT-29 were 4.3 µM, 6.2 µM and 2.3 µM, respectively.
The matching figures for `Cc1ccccc1NC1=NCCO1`: 18 µM, 21 µM and 13 µM.
The matching figures for `O=C(NCCCl)Nc1ccc(I)cc1`: 3.9 µM, 6 µM and 1.9 µM.
Take `Cc1ccc(NC(=O)NC(=O)CCl)cc1`: the figures for the concentration for 50% growth inhibition (GI50) in the assay with M21 [1], in the assay on MCF7 and in the assay with HT-29 were 4.9 µM, 7.5 µM and 10 µM, respectively. In addition, the result with M21 [2] was inactive.
As to `COc1cc2c(c(OC)c1OC)-c1ccc(OC)c(=O)cc1[C@@H](NC(C)=O)CC2` [COLCHICINE], the values for the 50% growth inhibitory concentration (GI50) in the assay with M21 [1], with MCF7 and in the assay on HT-29 were 0.015 µM, 0.009 µM and 0.004 µM, respectively.
The matching figures for `Cc1cc(C)cc(NC(=O)NCCCl)c1`: 16 µM, 31 µM and 8.5 µM.
Consider `O=C(CCl)NC(=O)Nc1ccc2c(c1)CCC2`, for which the results for the GI50 with M21 [1], with MCF7 and in the assay on HT-29 were 1.7 µM, 4 µM and 7 µM, respectively. The outcome in the assay on M21 [2] was inactive.
As to `Cc1cccc(NC(=O)NCCCl)c1`, the GI50 in the assay with M21 [1] came out at 81 µM; in the assay on HT-29, 39 µM.
As to `Cc1ccc(NC(=O)NCCCl)cc1C`, the GI50 in the assay with M21 [1] worked out at 8.4 µM; with MCF7 it was 12 µM; in the assay on HT-29, 4.2 µM.
As for `Ic1ccc(NC2=NCCO2)cc1`, the 50% growth inhibitory concentration (GI50) in the assay on M21 [1] was determined as 2 µM; in the assay with MCF7, 2.9 µM; in the assay on HT-29, 1.3 µM. Besides, the result in the assay with M21 [3] was Active.
As for `O=C(CCl)NC(=O)Nc1ccc(I)cc1`, the GI50 in the assay on M21 [1] is 4.2 µM; with MCF7 it was 6.8 µM; in the assay on HT-29, 6.9 µM.
On to `c1cc2c(cc1NC1=NCCO1)CCC2`, for which the GI50 in the assay with M21 [1] came to 8.1 µM; with MCF7, 9.1 µM; in the assay with HT-29, 4.9 µM. Further, the outcome in the assay with M21 [4] and in the assay on M21 [3] was Active.
`O=C(NCCCl)Nc1ccc2c(c1)CCC2`: the GI50 in the assay on M21 [1] turned out to be 8.9 µM; with MCF7, 17 µM; with HT-29, 4.7 µM. In addition, the outcome in the assay on M21 [4] was Active.
For the compound `O=C(CCl)NC(=O)Nc1cccc2c1CCC2`, the 50% growth inhibitory concentration (GI50) with M21 [1] was found to be 4.9 µM; with MCF7 it was 2.2 µM; in the assay with HT-29, 3.2 µM. The outcome with M21 [2] was inactive.
The matching figures for `Cc1cccc(C)c1NC(=O)NC(=O)CCl`: 6.3 µM, 7.4 µM, 6.6 µM and “inactive”.
On to `O=C(CCl)NC(=O)Nc1ccc2c(c1)Cc1ccccc1-2`, for which the concentration for 50% growth inhibition (GI50) in the assay on M21 [1] is 4.8 µM; in the assay with MCF7, 5 µM; with HT-29, 13 µM. Also, the result in the assay on M21 [2] was inactive.
`Cc1ccc(NC2=NCCO2)cc1`: the GI50 worked out at 22 µM with M21 [1], 27 µM in the assay on MCF7 and 13 µM in the assay with HT-29.
For the compound `Cc1ccc(NC2=NCCO2)c(C)c1`, the GI50 with M21 [1] stood at 26 µM; in the assay with MCF7, 23 µM; with HT-29 it was 15 µM. Also, the result with M21 [2] was inactive.
As to `CC(C)(C)c1ccc(NC(=O)NC(=O)CCl)cc1`, the figures for the concentration for 50% growth inhibition (GI50) with M21 [1], in the assay on MCF7 and with HT-29 were 1.1 µM, 4.8 µM and 3.3 µM, respectively.
On to `CC(=O)O[C@H]1C(=O)[C@@]2(C)[C@H]([C@H](OC(=O)c3ccccc3)[C@]3(O)C[C@H](OC(=O)[C@H](O)[C@@H](NC(=O)c4ccccc4)c4ccccc4)C(C)=C1C3(C)C)[C@]1(OC(C)=O)CO[C@@H]1C[C@@H]2O` [PACLITAXEL], for which the GI50 with M21 [1] stood at 0.037 µM; in the assay on MCF7, 0.054 µM; in the assay with HT-29, 0.015 µM.
With `Cc1ccc(NC(=O)NC(=O)CCl)c(C)c1`, the concentration for 50% growth inhibition (GI50) in the assay on M21 [1] came out at 7.4 µM; in the assay with MCF7, 8.6 µM; in the assay with HT-29 it was 11 µM. Moreover, in the assay with M21 [2], the outcome was inactive.
The matching figures for `Cc1ccc(NC(=O)NC(=O)CCl)cc1C`: 4.3 µM, 5.5 µM, 6.9 µM and “inactive”.
For `O=C(NCCCl)NC1c2ccccc2-c2ccccc21`, the results for the GI50 with M21 [1], in the assay with MCF7 and with HT-29 were 38 µM, 21 µM and 16 µM, respectively.
The matching figures for `c1ccc2c(c1)-c1ccccc1C2NC1=NCCO1`: 17 µM, 11 µM and 15 µM.
